Our source for the IC50 and efflux ratio values is patent US11834453B2, “Substituted pyrimido[5,4-d]pyrimidines as HER2 inhibitors” (Array BioPharma Inc., priority 2020, dated 2023).

Data set [1] deals with ErbB2 insYVMA (HER2-YVMA, SEQ ID NO: 2) (Homo sapiens, UniProt P04626, INS775YVMA/P1170A). The data set can be described thus: biochemical. The settings on record: ErbB2 insYVMA enzyme assay; read-out: Assay 1 IC50.
Another data set has as its target ErbB2 WT (Homo sapiens (Human), UniProt P04626). The data set can be described thus: ErbB enzyme assay (CisBio HTRF KinEASE-TK), Assay 2. It is filed as biochemical. The gist of the method:
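ErbB2 phosphorylates 250 nM biotin-TK substrate at 1 mM ATP in 25 mM HEPES pH 7.4, 10 mM MgCl2, 0.01% Triton X-100 and 2% DMSO, for 30 min at 22 °C. Product is detected by HTRF with Sa-XL665 and TK-Ab-Cryptate. Percent of control is set by DMSO-only wells and pre-quenched wells.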
(In general: Time-resolved FRET reads energy transfer from a long-lived donor to a nearby acceptor.)

For a further data set, the target named is EGFR (Homo sapiens (Human), UniProt P00533). Kind of data set: ErbB enzyme assay (CisBio HTRF KinEASE-TK), Assay 3. The format is biochemical. The gist of the method: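 Inhibition is measured as reduced peptide phosphorylation by HTRF KinEASE-TK at 1 mM ATP and 250 nM substrate, 30 min at 22 °C. Values are IC50s from a 4-parameter logistic fit.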
For data set [2], the target named is ErbB2 with Exon 20 YVMA insertion (HER2-YVMA) (Homo sapiens (Human), UniProt P04626, INS775YVMA). The data set can be described thus: Cellular phosphorylation assay, constitutive ErbB2 phosphorylation (Y1196) in engineered NIH 3T3 cells, Assay 4. It is filed as cell-based. In short, it runs like this: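 Engineered NIH 3T3 cells expressing HER2-YVMA treated with compounds 1 h at 37 °C, then formaldehyde-fixed and methanol-permeabilized. pErbB2 Y1196 detected by in-cell infrared immunofluorescence, normalized to GAPDH. IC50 from the normalized curves.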

A further data set concerns the target EGFR wild type (EGFR WT) (Homo sapiens (Human), UniProt P00533). The data set can be described thus: Cellular phosphorylation assay, EGF-stimulated EGFR phosphorylation in engineered NIH 3T3 cells, Phospho-EGFR DuoSet IC ELISA, Assay 5. It is filed as cell-based. The gist of the method:
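NIH 3T3 cells expressing EGFR WT (20,000/well, attached overnight) were exposed to serially diluted compound for 1 h at 37 °C, then stimulated with 100 ng/ml rEGF for 10 min. Phospho-EGFR in lysates measured by sandwich ELISA optical density; IC50 from curves.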
Background: In an ELISA, binding on a coated surface is turned into a signal by an enzyme label.

The target of another data set is MDR1 (P-gp) (Homo sapiens (Human), UniProt P08183). The data set can be described thus: MDR1 transfected MDCKII canine Mdr1 knockout permeability/efflux, Assay 7. The settings on record: dog, MDCK-MDR1.
Another data set deals with BCRP (Homo sapiens (Human), UniProt Q9UNQ0). Kind of data set: BCRP transfected MDCKII canine Mdr1 knockout permeability/efflux, Assay 9. Particulars: dog.
[3] abbreviates: Assay 9 Pe Ratio, efflux ratio Papp(B-A)/Papp(A-B), BCRP transfected MDCKII canine Mdr1 knockout.

MDR1 (P-gp), sequence (P08183 whole entry): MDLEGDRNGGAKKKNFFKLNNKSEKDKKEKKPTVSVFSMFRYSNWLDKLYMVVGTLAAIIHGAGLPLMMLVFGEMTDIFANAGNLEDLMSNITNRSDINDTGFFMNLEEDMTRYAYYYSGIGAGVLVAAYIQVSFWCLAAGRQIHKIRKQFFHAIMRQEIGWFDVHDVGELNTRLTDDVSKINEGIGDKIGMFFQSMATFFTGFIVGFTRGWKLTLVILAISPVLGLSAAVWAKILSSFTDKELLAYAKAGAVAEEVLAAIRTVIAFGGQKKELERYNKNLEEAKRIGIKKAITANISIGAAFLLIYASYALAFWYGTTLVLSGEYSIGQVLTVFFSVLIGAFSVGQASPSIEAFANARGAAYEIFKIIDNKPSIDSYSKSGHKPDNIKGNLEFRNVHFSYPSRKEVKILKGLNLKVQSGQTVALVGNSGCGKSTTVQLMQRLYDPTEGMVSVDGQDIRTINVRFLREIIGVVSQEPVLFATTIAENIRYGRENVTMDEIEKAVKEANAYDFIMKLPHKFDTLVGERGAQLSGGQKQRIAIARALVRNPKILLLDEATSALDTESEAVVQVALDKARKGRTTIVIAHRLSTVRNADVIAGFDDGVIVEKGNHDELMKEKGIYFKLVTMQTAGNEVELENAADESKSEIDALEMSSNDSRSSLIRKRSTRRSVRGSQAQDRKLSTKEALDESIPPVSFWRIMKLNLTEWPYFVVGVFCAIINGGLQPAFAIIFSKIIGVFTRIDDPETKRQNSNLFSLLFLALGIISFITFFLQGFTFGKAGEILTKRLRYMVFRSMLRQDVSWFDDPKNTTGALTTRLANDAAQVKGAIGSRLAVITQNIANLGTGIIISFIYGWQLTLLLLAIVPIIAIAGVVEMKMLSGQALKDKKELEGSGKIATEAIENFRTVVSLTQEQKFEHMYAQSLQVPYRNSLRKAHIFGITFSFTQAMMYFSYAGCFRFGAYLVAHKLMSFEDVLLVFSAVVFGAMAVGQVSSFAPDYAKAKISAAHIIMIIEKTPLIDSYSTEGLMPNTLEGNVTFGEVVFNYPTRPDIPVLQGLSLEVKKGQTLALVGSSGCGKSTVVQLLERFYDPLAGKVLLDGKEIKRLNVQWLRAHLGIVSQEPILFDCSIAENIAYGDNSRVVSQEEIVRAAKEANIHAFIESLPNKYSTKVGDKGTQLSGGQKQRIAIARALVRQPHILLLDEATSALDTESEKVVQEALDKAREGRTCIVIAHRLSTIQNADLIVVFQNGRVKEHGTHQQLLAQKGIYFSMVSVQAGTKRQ
EGFR, sequence (P00533 25-1210): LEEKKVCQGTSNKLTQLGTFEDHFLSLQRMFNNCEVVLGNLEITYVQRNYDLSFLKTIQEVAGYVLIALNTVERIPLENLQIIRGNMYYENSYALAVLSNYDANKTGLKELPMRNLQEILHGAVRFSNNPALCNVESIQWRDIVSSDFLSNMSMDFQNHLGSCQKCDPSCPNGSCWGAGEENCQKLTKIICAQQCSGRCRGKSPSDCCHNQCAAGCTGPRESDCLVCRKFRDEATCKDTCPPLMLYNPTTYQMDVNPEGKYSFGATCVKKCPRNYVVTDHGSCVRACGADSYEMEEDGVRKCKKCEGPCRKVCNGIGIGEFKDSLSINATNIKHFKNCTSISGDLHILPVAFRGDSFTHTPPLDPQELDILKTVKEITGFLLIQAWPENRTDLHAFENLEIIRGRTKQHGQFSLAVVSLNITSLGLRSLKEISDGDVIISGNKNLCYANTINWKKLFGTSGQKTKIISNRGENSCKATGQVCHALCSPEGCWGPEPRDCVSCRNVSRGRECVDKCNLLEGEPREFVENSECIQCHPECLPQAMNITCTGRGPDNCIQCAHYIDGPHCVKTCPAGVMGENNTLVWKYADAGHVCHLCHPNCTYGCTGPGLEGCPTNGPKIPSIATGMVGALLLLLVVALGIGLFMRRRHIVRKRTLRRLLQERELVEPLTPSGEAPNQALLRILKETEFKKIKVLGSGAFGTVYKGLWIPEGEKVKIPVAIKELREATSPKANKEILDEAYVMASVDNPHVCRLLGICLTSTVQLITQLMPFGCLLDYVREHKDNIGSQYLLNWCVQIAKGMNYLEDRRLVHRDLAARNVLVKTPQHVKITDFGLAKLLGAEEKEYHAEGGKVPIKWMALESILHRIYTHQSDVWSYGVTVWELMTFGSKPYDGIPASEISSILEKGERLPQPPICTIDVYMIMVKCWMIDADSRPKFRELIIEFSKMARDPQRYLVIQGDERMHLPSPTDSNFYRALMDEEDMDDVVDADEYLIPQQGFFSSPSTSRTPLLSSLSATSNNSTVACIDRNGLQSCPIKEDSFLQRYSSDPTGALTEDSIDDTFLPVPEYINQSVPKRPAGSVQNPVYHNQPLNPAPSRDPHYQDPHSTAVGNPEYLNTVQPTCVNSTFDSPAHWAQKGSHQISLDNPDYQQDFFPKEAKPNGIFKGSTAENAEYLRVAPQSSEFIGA
EGFR wild type (EGFR WT), sequence (P00533 25-1210): as above
ErbB2 insYVMA (HER2-YVMA, SEQ ID NO: 2), sequence (P04626 with tags, fused parts or gaps INS775YVMA/P1170A limits assumed): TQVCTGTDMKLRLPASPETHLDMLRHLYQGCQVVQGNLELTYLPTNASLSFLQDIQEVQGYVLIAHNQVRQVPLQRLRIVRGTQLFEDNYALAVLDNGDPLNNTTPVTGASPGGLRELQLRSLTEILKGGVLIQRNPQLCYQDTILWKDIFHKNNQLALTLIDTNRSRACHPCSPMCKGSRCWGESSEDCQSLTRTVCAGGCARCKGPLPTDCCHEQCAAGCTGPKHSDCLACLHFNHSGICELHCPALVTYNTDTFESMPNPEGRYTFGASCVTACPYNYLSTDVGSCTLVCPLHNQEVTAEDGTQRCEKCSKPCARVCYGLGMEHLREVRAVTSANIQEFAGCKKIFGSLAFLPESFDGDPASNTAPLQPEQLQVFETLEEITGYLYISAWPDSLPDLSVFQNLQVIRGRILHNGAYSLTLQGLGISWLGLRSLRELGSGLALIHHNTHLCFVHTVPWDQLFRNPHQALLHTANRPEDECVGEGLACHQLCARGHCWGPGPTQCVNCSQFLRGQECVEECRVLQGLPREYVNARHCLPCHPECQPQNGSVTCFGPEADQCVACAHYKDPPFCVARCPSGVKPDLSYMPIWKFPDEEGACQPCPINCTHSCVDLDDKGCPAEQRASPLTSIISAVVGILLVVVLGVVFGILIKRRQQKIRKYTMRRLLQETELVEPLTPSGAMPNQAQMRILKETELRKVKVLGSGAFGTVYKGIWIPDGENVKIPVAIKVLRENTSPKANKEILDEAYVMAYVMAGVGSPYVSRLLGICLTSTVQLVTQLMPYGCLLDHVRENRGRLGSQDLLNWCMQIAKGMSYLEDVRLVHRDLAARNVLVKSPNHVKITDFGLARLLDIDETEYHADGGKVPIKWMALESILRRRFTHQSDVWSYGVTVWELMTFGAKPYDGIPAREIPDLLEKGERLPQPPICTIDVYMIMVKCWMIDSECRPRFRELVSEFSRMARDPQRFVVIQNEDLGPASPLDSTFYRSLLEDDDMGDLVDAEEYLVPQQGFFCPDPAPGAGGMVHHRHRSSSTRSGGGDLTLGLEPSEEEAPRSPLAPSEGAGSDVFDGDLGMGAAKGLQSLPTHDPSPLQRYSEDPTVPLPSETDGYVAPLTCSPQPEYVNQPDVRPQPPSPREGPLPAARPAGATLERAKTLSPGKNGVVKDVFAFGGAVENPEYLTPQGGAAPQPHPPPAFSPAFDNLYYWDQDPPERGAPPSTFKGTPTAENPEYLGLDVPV

As a reminder, the IC50 is the concentration that gives 50% inhibition. What is called efflux ratio is a quotient of directional permeabilities that is used to spot active efflux. For the compound `Cc1cc(Nc2ncnc3cnc(N4CC[C@@]45CCOC5)nc23)ccc1Oc1ccc2c(c1)ncn2C` (single isomer, unassigned) [Example 93a], the IC50 in data set [1] was 17 nM; at ErbB2 WT, 16 nM; at EGFR it was 1.46 µM; in data set [2], 20.6 nM; against EGFR wild type (EGFR WT), not below 5 µM. The results for the efflux ratio at 2 h, 1 μM at MDR1 (P-gp) and on BCRP were 1.3 and 1.9, respectively.
For the compound `Cc1cc(Nc2ncnc3cnc(N4C[C@@H](F)[C@@H](O)C4)nc23)ccc1Oc1ccc2c(c1)ncn2C` [Example 91, (3S,4R)-4-fluoro-1-(8-((3-methyl-4-((1-methyl-1H-benzo[d]imidazol-5-yl)oxy)phenyl)amino)pyrimido[5,4-d]pyrimidin-2-yl)pyrrolidin-3-ol], the half-inhibitory concentration (IC50) is 12.8 nM in data set [1]; 20.6 nM against ErbB2 WT; 6.83 µM against EGFR; 14.1 nM in data set [2]; not below 5 µM against EGFR wild type (EGFR WT). Also, the efflux ratio at 2 h, 1 μM was 2.5 on MDR1 (P-gp) and 50.1 at BCRP (setting [3]).
As for `Cc1cc(Nc2ncnc3cnc(N4CC[C@@](C)(O)C4)nc23)ccc1Oc1ccn2ncnc2c1` [Example 110, (R)-1-(8-((4-([1,2,4]triazolo[1,5-a]pyridin-7-yloxy)-3-methylphenyl)amino)pyrimido[5,4-d]pyrimidin-2-yl)-3-methylpyrrolidin-3-ol], the IC50 in data set [1] is 33.5 nM; at ErbB2 WT, 32.8 nM; against EGFR, 3.17 µM; in data set [2], 61.7 nM; on EGFR wild type (EGFR WT), not below 5 µM. Besides, the efflux ratio at 2 h, 1 μM on MDR1 (P-gp) was 1.9; on BCRP (setting [3]) it was 32.2.
`Cc1cc(Nc2ncnc3cnc(N4CC[C@@H](C(C)(C)O)C4)nc23)ccc1Oc1ccc2c(c1)ncn2C` [Example 113, (R)-2-(1-(8-((3-methyl-4-((1-methyl-1H-benzo[d]imidazol-5-yl)oxy)phenyl)amino)pyrimido[5,4-d]pyrimidin-2-yl)pyrrolidin-3-yl)propan-2-ol]: the IC50 in data set [1] was 13.1 nM; against ErbB2 WT it was 23 nM; on EGFR it was 8.48 µM; in data set [2], 9.5 nM; on EGFR wild type (EGFR WT), not below 5 µM. The efflux ratio at 2 h, 1 μM on MDR1 (P-gp) came out at 0.9; at BCRP (setting [3]), 11.
As for `Cn1cnc2cc(Oc3ccc(Nc4ncnc5cnc(N6CCC7COCC76)nc45)cc3Cl)ccc21` (centres unmarked) [Example 114, N-(3-chloro-4-((1-methyl-1H-benzo[d]imidazol-5-yl)oxy)phenyl)-6-(hexahydro-1H-furo[3,4-b]pyrrol-1-yl)pyrimido[5,4-d]pyrimidin-4-amine], the IC50 in data set [1] is 50.1 nM; at ErbB2 WT, 96.3 nM; on EGFR, 7.89 µM; in data set [2], 20.1 nM; against EGFR wild type (EGFR WT), not below 5 µM. In addition, the efflux ratio at 2 h, 1 μM at MDR1 (P-gp) came to 1.5; at BCRP (setting [3]), 1.2.
`Cc1c(Oc2ccc3c(c2)ncn3C)ccc(Nc2ncnc3cnc(N(C)[C@H]4C[C@@](C)(O)C4)nc23)c1F` [Example 116, (1s,3s)-3-((8-((2-fluoro-3-methyl-4-((1-methyl-1H-benzo[d]imidazol-5-yl)oxy)phenyl)amino)pyrimido[5,4-d]pyrimidin-2-yl)(methyl)amino)-1-methylcyclobutan-1-ol]: the 50% inhibitory concentration (IC50) in data set [1] is 17.3 nM; on ErbB2 WT, 14.8 nM; at EGFR, 1.17 µM; in data set [2] it was 27.8 nM; on EGFR wild type (EGFR WT), not below 5 µM. Also, the efflux ratio at 2 h, 1 μM on MDR1 (P-gp) came to 1.3; on BCRP (setting [3]), 1.8.
As to `Cc1cc(Nc2ncnc3cnc(N4CCC(C)(O)CC4)nc23)ccc1Oc1ccn2ncnc2c1` [Example 120, 1-(8-((4-([1,2,4]triazolo[1,5-a]pyridin-7-yloxy)-3-methylphenyl)amino)pyrimido[5,4-d]pyrimidin-2-yl)-4-methylpiperidin-4-ol], the IC50 was 20.6 nM in data set [1]; 19 nM on ErbB2 WT; 5.34 µM on EGFR; 49.4 nM in data set [2]; not below 5 µM against EGFR wild type (EGFR WT). Moreover, the efflux ratio at 2 h, 1 μM amounted to 1.3 at MDR1 (P-gp) and 7.8 on BCRP (setting [3]).
For `CC(C)(O)[C@@H]1CCN(c2ncc3ncnc(Nc4ccc(Oc5ccn6ncnc6c5)c(Cl)c4)c3n2)C1` [Example 122, (R)-2-(1-(8-((4-([1,2,4]triazolo[1,5-a]pyridin-7-yloxy)-3-chlorophenyl)amino)pyrimido[5,4-d]pyrimidin-2-yl)pyrrolidin-3-yl)propan-2-ol], the IC50 in data set [1] was 15.2 nM; at ErbB2 WT it was 22.7 nM; against EGFR, 0.953 µM; in data set [2] it was 19.7 nM; against EGFR wild type (EGFR WT) it was not below 5 µM. Also, the efflux ratio at 2 h, 1 μM was found to be 1.7 on MDR1 (P-gp) and 7.3 at BCRP (setting [3]).
`CN(c1ncc2ncnc(Nc3ccc(Oc4ccc5c(c4)ncn5C)c(Cl)c3)c2n1)C1COC1` [Example 123, N8-(3-chloro-4-((1-methyl-1H-benzo[d]imidazol-5-yl)oxy)phenyl)-N2-methyl-N2-(oxetan-3-yl)pyrimido[5,4-d]pyrimidine-2,8-diamine]: the IC50 in data set [1] was 26.5 nM; at ErbB2 WT, 118 nM; against EGFR, not below 10 µM; in data set [2] it was 13.2 nM; against EGFR wild type (EGFR WT), not below 5 µM. The results for the efflux ratio at 2 h, 1 μM on MDR1 (P-gp) and at BCRP (setting [3]) were 1.6 and 2.4, respectively.
For `Cc1cc(Nc2ncnc3cnc(N4CC[C@@H](C(C)(C)O)C4)nc23)ccc1Oc1ccn2ncnc2c1` [Example 124, (R)-2-(1-(8-((4-([1,2,4]triazolo[1,5-a]pyridin-7-yloxy)-3-methylphenyl)amino)pyrimido[5,4-d]pyrimidin-2-yl)pyrrolidin-3-yl)propan-2-ol], the IC50 in data set [1] was 16 nM; on ErbB2 WT, 14.3 nM; at EGFR, 2.75 µM; in data set [2] it was 64.8 nM; on EGFR wild type (EGFR WT) it was not below 5 µM. Also, the efflux ratio at 2 h, 1 μM at MDR1 (P-gp) stood at 1.4; on BCRP (setting [3]), 10.3.
In the case of `Cc1cc(Nc2ncnc3cnc(N(C)[C@@H]4CCOC4)nc23)ccc1Oc1ccc2c(c1)ncn2C` [Example 128, (R)—N2-methyl-N8-(3-methyl-4-((1-methyl-1H-benzo[d]imidazol-5-yl)oxy)phenyl)-N2-(tetrahydrofuran-3-yl)pyrimido[5,4-d]pyrimidine-2,8-diamine], the IC50 in data set [1] was 21 nM; on ErbB2 WT it was 20 nM; against EGFR it was 3.27 µM; in data set [2] it was 36.3 nM; against EGFR wild type (EGFR WT), not below 5 µM. For the same compound, the efflux ratio at 2 h, 1 μM was 1.6 at MDR1 (P-gp) and 1.4 at BCRP (setting [3]).
For the compound `Cc1cc(Nc2ncnc3cnc(N4CCC5COCC54)nc23)ccc1Oc1ccc2c(c1)ncn2C` (centres unmarked) [Example 129, 6-(hexahydro-1H-furo[3,4-b]pyrrol-1-yl)-N-(3-methyl-4-((1-methyl-1H-benzo[d]imidazol-5-yl)oxy)phenyl)pyrimido[5,4-d]pyrimidin-4-amine], the IC50 is 12.4 nM in data set [1]; 15 nM against ErbB2 WT; 0.865 µM at EGFR; 7.6 nM in data set [2]; not below 5 µM on EGFR wild type (EGFR WT). Further, the results for the efflux ratio at 2 h, 1 μM on MDR1 (P-gp) and on BCRP (setting [3]) were 1.4 and 1.7, respectively.
Take `FC(F)(F)[C@@H]1CN(c2ncc3ncnc(Nc4ccc(Oc5ccn6ncnc6c5)c(Cl)c4)c3n2)CCN1` [Example 130, (S)—N-(4-([1,2,4]triazolo[1,5-a]pyridin-7-yloxy)-3-chlorophenyl)-6-(3-(trifluoromethyl)piperazin-1-yl)pyrimido[5,4-d]pyrimidin-4-amine]: the IC50 in data set [1] was 41.7 nM; on ErbB2 WT, 36.3 nM; against EGFR, 2.56 µM; in data set [2], 43.3 nM; against EGFR wild type (EGFR WT) it was not below 5 µM. Further, the efflux ratio at 2 h, 1 μM at MDR1 (P-gp) is 1.3; at BCRP (setting [3]) it was 1.
As to `Cc1cc(Nc2ncnc3cnc(N(C)[C@H]4CCOC4)nc23)ccc1Oc1ccc2c(c1)ncn2C` [Example 131, (S)—N2-methyl-N8-(3-methyl-4-((1-methyl-1H-benzo[d]imidazol-5-yl)oxy)phenyl)-N2-(tetrahydrofuran-3-yl)pyrimido[5,4-d]pyrimidine-2,8-diamine], the IC50 is 21 nM in data set [1]; 20 nM on ErbB2 WT; 3.27 µM at EGFR; 36.3 nM in data set [2]; not below 5 µM against EGFR wild type (EGFR WT). The efflux ratio at 2 h, 1 μM at MDR1 (P-gp) was found to be 1.6; at BCRP (setting [3]) it was 1.4.
